Measurements taken from US20080166805A1, “Culturing human cells and tissues in an N-glycolylneuraminic acid-free environment” (The Regents of the University of California, priority 2005, published 2008).

Experiments:
Caco-2 cells [1] = experiment: Endocytosis inhibition experiments (Neu5Gc uptake in Caco-2 cells); format: cell-based, human; conditions: 2 h pre-treatment with drug, then 3 mM Neu5Gc
Experimental: The sonicate was centrifuged at 75×g for 15 min., and the pellet obtained consisted primarily of nuclei and unbroken cells. […] A portion (20%) of the “total homogenate” fraction was taken for protein quantification and Sia analysis by DMB derivatization and HPLC analysis (as discussed below.) The remainder was centrifuged at 100,000×g for 1 h. The resulting pellet, called the “membrane” fraction, was then resuspended by sonication (15 sec.) in 200 μl of sodium acetate buffer, pH 5.5. The 100,000×g supernatant, called the “soluble” fraction was adjusted to 90% ethanol using absolute ice-cold ethanol, and placed overnight at −20° C. The flocculant precipitate, which represents the “soluble protein” fraction, was washed 3 times with 90% ice-cold ethanol and then resuspended in 200 μl of water. The supernatant fluid representing the cytosolic low molecular weight (LMW) fraction was dried and brought up in 100 μL with water prior to Sia analysis. All the Sias in these fractions were released with mild acid hydrolysis if necessary and then analyzed by HPLC after DMB derivatization. Protein quantification was performed on the total homogenate, membrane and soluble protein fractions by using the BCA protein assay kit from Pierce (Rockford, Ill.) In some experiments, the resulting data obtained for the Sia bound to the membrane fraction and to the soluble proteins were pooled and presented here as a High Molecular Weight (HMW) fraction. Sialic Acid Release, DMB Derivatization and HPLC Analysis—The bound Sias from the total homogenate, membrane and soluble protein fractions were released using 2M acetic acid hydrolysis, 3 h. at 80° C. The released Sias, or free Sias, contained in the soluble LMW fraction were passed through a Microcon® YM-10 filter (Millipore, Bedford, Mass.) prior to DMB derivatization, which was done according to Hara et al., 1989. […] The eluant was monitored by fluorescence. Quantification of Sias—For all HPLC chromatograms, the quantification of Sias was done by comparison with known quantities of DMB derivatized Neu5Gc and Neu5Ac used as standards and then reported in terms of pmoles of Sia. For total homogenate, membrane and cytosolic protein fractions, this number was expressed per mg of protein. Due to minor sample-to-sample variations in amounts and recoveries, the data in the Figures is presented as percent of Neu5Gc over total Sias, rather than as absolute amounts. Endocytosis Inhibition Experiments—Caco-2 or normal fibroblast cells were split and cultured in alpha-MEM media supplemented respectively with 20% or 15% human serum for 4 days before starting the endocytosis drug inhibition experiments in order to deplete any Neu5Gc derived from FCS. Cells were then pre-treated for 2 h. with the specific inhibitors under the same culture conditions. Fresh media containing the same amount of inhibitor and 3 mM of Neu5Gc was then added to the cells, which were incubated for 16 h or 3 days and finally harvested and fractionated as described above.

[2] = system: human LB EBV-transformed lymphoblasts; experiment: Neu5Gc/Neu5Ac feeding experiment, human EBV-transformed lymphoblasts; format: cell-based; conditions: human lymphoblasts fed 3 mM Neu5Ac for 3 days
Experimental: (§1) Cell Culture—Caco-2 cells were propagated in alpha-MEM containing GLUTAMAX™ (Invitrogen, San Diego, Calif.) and a mixture of ribonucleosides and deoxyribonucleosides (Gibco/Invitrogen, San Diego, Calif.) supplemented with 20% FCS. All the fibroblast cell lines and CHO-K1 cells were cultured in the same media supplemented respectively with 15% non-heat inactivated FCS or 10% heat inactivated FCS. Chimpanzee Fred and human […] EBV-transformed lymphoblasts were cultured in RPMI-1640 (Gibco/Invitrogen, San Diego, Calif.) supplemented with 10% heat inactivated FCS or 15% human serum. All of the cultures were maintained at 37° C., 5% CO2 atmosphere. In order to deplete any remaining Neu5Gc from FCS, the cells were split and cultured prior to Neu5Gc feeding experiments for at least 4 days in alpha-MEM supplemented with an adequate percentage of heat-inactivated premium human serum instead of FCS. The cells were then maintained under the same conditions during the whole feeding experiment. The human serum was heat inactivated at 56° C. for 30 min. before use.
(§2) Neu5Gc and ManNGc Feeding Experiment—Neu5Ac, Neu5Gc or ManNGc were dried, dissolved in the appropriate media supplemented with heat-inactivated human serum, sterilized using a Spin-X® (Corning Inc., Corning, N.Y.) and then added to the cells. The pH of the media containing Sia was adjusted to neutrality using sterilized 1M NaOH before starting the feeding experiment. Cells were cultured in the presence of up to 3 mM free Sia or ManNGc for 1 or 3 days at 37° C. […]
(§3) Fractionation of the Labeled Cells—Washed cell pellets were sonicated into 500 μL of 20 mM sodium phosphate buffer or 20 mM Tris-HCl, pH 7.5, using 4×15 second pulses of a sonicator cell disrupter, model Some Dismembrator (Fisher Scientific, Hampton, N.J.) at a probe setting of 3. […] The pellet contained <5% of the incorporated sialic acid as determined using a radioactive tracer (data not shown.) The supernatant was therefore considered as the “total homogenate” fraction. A portion (20%) of the “total homogenate” fraction was taken for protein quantification and Sia analysis by DMB derivatization and HPLC analysis (as discussed below.) The remainder was centrifuged at 100,000×g for 1 h. […] All the Sias in these fractions were released with mild acid hydrolysis if necessary and then analyzed by HPLC after DMB derivatization. Protein quantification was performed on the total homogenate, membrane and soluble protein fractions by using the BCA protein assay kit from Pierce (Rockford, Ill.) In some experiments, the resulting data obtained for the Sia bound to the membrane fraction and to the soluble proteins were pooled and presented here as a High Molecular Weight (HMW) fraction. […]

chimpanzee lymphoblasts = experiment: Neu5Gc/Neu5Ac feeding experiment, chimpanzee EBV-transformed lymphoblasts; format: cell-based; conditions: chimpanzee lymphoblasts fed 3 mM Neu5Ac for 3 days
Experimental: as §1, §2, §3

Caco-2 cells [3] = experiment: Competition of free Neu5Ac with free Neu5Gc for incorporation into Caco-2 cells; format: cell-based, human
Experimental: Neu5Gc and ManNGc Feeding Experiment—Neu5Ac, Neu5Gc or ManNGc were dried, dissolved in the appropriate media supplemented with heat-inactivated human serum, sterilized using a Spin-X® (Corning Inc., Corning, N.Y.) and then added to the cells. The pH of the media containing Sia was adjusted to neutrality using sterilized 1M NaOH before starting the feeding experiment. Cells were cultured in the presence of up to 3 mM free Sia or ManNGc for 1 or 3 days at 37° C. At the end of the feeding, cells were washed with cold PBS, harvested either by scraping or with 2 mM EDTA for fibroblasts, and washed again with cold PBS prior to fractionation.
Fractionation of the Labeled Cells—Washed cell pellets were sonicated into 500 μL of 20 mM sodium phosphate buffer or 20 mM Tris-HCl, pH 7.5, using 4×15 second pulses of a sonicator cell disrupter, model Some Dismembrator (Fisher Scientific, Hampton, N.J.) at a probe setting of 3. The sonicate was centrifuged at 75×g for 15 min., and the pellet obtained consisted primarily of nuclei and unbroken cells. The pellet contained <5% of the incorporated sialic acid as determined using a radioactive tracer (data not shown.) The supernatant was therefore considered as the “total homogenate” fraction. A portion (20%) of the “total homogenate” fraction was taken for protein quantification and Sia analysis by DMB derivatization and HPLC analysis (as discussed below.) The remainder was centrifuged at 100,000×g for 1 h. The resulting pellet, called the “membrane” fraction, was then resuspended by sonication (15 sec.) in 200 μl of sodium acetate buffer, pH 5.5. The 100,000×g supernatant, called the “soluble” fraction was adjusted to 90% ethanol using absolute ice-cold ethanol, and placed overnight at −20° C. The flocculant precipitate, which represents the “soluble protein” fraction, was washed 3 times with 90% ice-cold ethanol and then resuspended in 200 μl of water. The supernatant fluid representing the cytosolic low molecular weight (LMW) fraction was dried and brought up in 100 μL with water prior to Sia analysis. All the Sias in these fractions were released with mild acid hydrolysis if necessary and then analyzed by HPLC after DMB derivatization. Protein quantification was performed on the total homogenate, membrane and soluble protein fractions by using the BCA protein assay kit from Pierce (Rockford, Ill.) In some experiments, the resulting data obtained for the Sia bound to the membrane fraction and to the soluble proteins were pooled and presented here as a High Molecular Weight (HMW) fraction.
Sialic Acid Release, DMB Derivatization and HPLC Analysis—The bound Sias from the total homogenate, membrane and soluble protein fractions were released using 2M acetic acid hydrolysis, 3 h. at 80° C. The released Sias, or free Sias, contained in the soluble LMW fraction were passed through a Microcon® YM-10 filter (Millipore, Bedford, Mass.) prior to DMB derivatization, which was done according to Hara et al., 1989. DMB-Sia derivatives from the different fractions were then analyzed by HPLC using a C18 column (Microsorb Mv-TM 100 A, Varian, Palo Alto, Calif.) Isocratic elution was achieved using 7% methanol, 8% acetonitrile in water during 50 min. at 0.9 ml/min flow. The eluant was monitored by fluorescence.
Quantification of Sias—For all HPLC chromatograms, the quantification of Sias was done by comparison with known quantities of DMB derivatized Neu5Gc and Neu5Ac used as standards and then reported in terms of pmoles of Sia. For total homogenate, membrane and cytosolic protein fractions, this number was expressed per mg of protein. Due to minor sample-to-sample variations in amounts and recoveries, the data in the Figures is presented as percent of Neu5Gc over total Sias, rather than as absolute amounts.

[4] = 3 mM Neu5Gc for 3 days in the presence of 15 mM Neu5Ac

| Compound | Neu5Gc incorporation into membrane-bound glycoconjugates in the presence of inhibitor (percent of total Sia) (Caco-2 cells [1]) [%] | incorporation of Neu5Gc in the TH fraction in the presence of inhibitor (percent of total Sia) (Caco-2 cells [1]) [%] | Neu5Gc content of the fractions [2] | change of percentages of Neu5Gc in the different fractions (chimpanzee lymphoblasts) | Neu5Gc as percent of total Sia, TH (Caco-2 cells [3]; 3 mM Neu5Gc for 3 days in the presence of 3 mM Neu5Ac) [%] | Neu5Gc as percent of total Sia, TH (Caco-2 cells [3]; [4]) [%] | Neu5Gc as percent of total Sia, membrane-bound fraction (Caco-2 cells [3]; [4]) | Neu5Gc as percent of total Sia, membrane-bound fraction (Caco-2 cells [3]; 3 mM Neu5Gc for 3 days with 3 mM Neu5Ac) [%] |
| --- | --- | --- | --- | --- | --- | --- | --- | --- |
| C[C@@H]1[C@H](O)[C@@H](C)/C=C/C=C/CC/C=C/C=C/C=C/C=C/C(O[C@H]2O[C@H](C)[C@@H](O)[C@H](N)[C@@H]2O)CC2O[C@](O)(CC(O)C(O)CCC(O)CC(O)CC(O)CC(=O)O[C@H]1C)CC(O)C2C(=O)O (stereo partly drawn) [nystatin] | 44 | ~65 |  |  |  |  |  |  |
| CN(C)CCCN1c2ccccc2Sc2ccc(Cl)cc21 [chlorpromazine] | 50 |  |  |  |  |  |  |  |
| CC(=O)N[C@H]1[C@H]([C@H](O)[C@H](O)CO)OC(O)(C(=O)O)C[C@@H]1O (stereo partly drawn) [Neu5Ac, N-acetylneuraminic acid] |  |  | almost no detectable Neu5Gc | changed only minimally | 48 | 35 | almost to zero | 29.9 |
